Columns and labels:
[1] = Example 3 four-week study of Formulation B (LOT-BB); assay type: in vivo, hypogonadal men
Protocol: The study was designed as an open-label, repeat dose, pharmacokinetic study.
For each subject, the “Day 28” serial PK sampling day was scheduled for Day 32 of the study. […] Doses were administered as capsules, with subjects instructed to take doses 30 minutes after initiation of meals (breakfast and dinner).

[2] = Contingency table classification of C(t) acceptance range as surrogate for Cavg; parameters: species or system hypogonadal men; conditions: for Percent of Subjects: C(t) in range / Percent of Subjects: C(t) too high / Percent of Subjects: C(t) too low / Percent of Subjects: Cavg in range & C(t) in range / Percent of Subjects: Cavg in range & C(t) too high / Percent of Subjects: Cavg in range & C(t) too low / Percent of Subjects: Cavg too high & C(t) too high / Percent of Subjects: Cavg too low & C(t) in range / Percent of Subjects: Cavg too low & C(t) too low / Percent of Subjects: Cavg too high & C(t) in range: Cavg 300-1000 ng/dL
Description: For the contingency table approach, the number and percentage of subjects that fell into each of the following seven categories were enumerated, for each of the candidate time points, and for each candidate target range for Cavg, and for each candidate acceptance range for C(t). • 1. Subjects with Cavg within range and with C(t) within range • 2. Subjects with Cavg below range and with C(t) below range • 3. Subjects with Cavg above range and with C(t) above range • 4. Subjects with Cavg within range but with C(t) below range • 5. Subjects with Cavg within range but with C(t) above range • 6. Subjects with Cavg below range, but with C(t) within range • 7. Subjects with Cavg above range, but with C(t) within range
If one defines a value as being “within range” as positive, and being “outside of range” as negative, then Group 1 is subjects that are “true positives”, Groups 2 and 3 are “true negatives”, groups 4 and 5 are “false negatives”, and groups 6 and 7 are “false positives”. Groups, 1, 2 and 3 represent successful predictions because C(t) is an appropriate surrogate for Cavg; Groups 4, 5, 6 and 7 are prediction failures because C(t) is an inaccurate surrogate for Cavg.
Correlations and contingency table calculations were performed using built-in functions in the Excel module of Microsoft Office 2003 (Redmond, Wash.). Graphs were produced using the built-in charting capabilities of Excel.

[3] = C(1.5), C(t) acceptance 130-1110

CCCCCCCCCCC(=O)O[C@H]1CC[C@H]2[C@@H]3CCC4=CC(=O)CC[C@]4(C)[C@H]3CC[C@]12C [TU, testosterone undecanoate]
Time to T steady-state ([1]; 200 mg T BID as TU): 5 to 7 days | Subjects with Cmax greater than 1500 ng/dL ([1]; 200 mg T BID as TU, 28 days): 13.3% | Subjects with serum T Cavg within the normal range ([1]; 200 mg T BID as TU, 28 days, no dose adjustment): 86.7% | Endogenous serum T baseline concentration, mean ([1]; after 28 days of treatment): 108 ng/dL | Time for DHT concentrations to return to pretreatment levels ([1]; after discontinuing treatment): ≤ 36 h | Time for E2 concentrations to return to pretreatment levels ([1]; after discontinuing treatment): ≤ 36 h | Continued treatment required for maximal suppression of endogenous T production ([1]; in vivo): 5 to 7 days | E2 mean Cavg ([1]; steady state): 0.022 ng/mL | E2 mean Cmin ([1]; steady state): 0.0155 ng/mL | Percent of Subjects: C(t) in range ([2]; C(0), C(t) acceptance 80-1000): 87.8% | Percent of Subjects: C(t) too high ([2]; C(0), C(t) acceptance 80-1000): C(t) too high 4.9% | Percent of Subjects: C(t) too low ([2]; C(0), C(t) acceptance 80-1000): 7.3% | Percent of Subjects: Cavg in range & C(t) in range ([2]; C(0), C(t) acceptance 80-1000): 75.6% | Percent of Subjects: Cavg in range & C(t) too high ([2]; C(0), C(t) acceptance 80-1000): 2.4% | Percent of Subjects: Cavg in range & C(t) too low ([2]; C(0), C(t) acceptance 80-1000): 2.4% | Percent of Subjects: Cavg too high & C(t) too high ([2]; C(0), C(t) acceptance 80-1000): 2.4% | Percent of Subjects: Cavg too low & C(t) in range ([2]; C(0), C(t) acceptance 80-1000): 7.3% | Percent of Subjects: C(t) in range ([2]; C(1), C(t) acceptance 130-1000): 85.4% | Percent of Subjects: C(t) too high ([2]; C(1), C(t) acceptance 130-1000): 2.4% | Percent of Subjects: C(t) too low ([2]; C(1), C(t) acceptance 130-1000): 12.2% | Percent of Subjects: Cavg in range & C(t) in range ([2]; C(1), C(t) acceptance 130-1000): 78.0% | Percent of Subjects: Cavg in range & C(t) too high ([2]; C(1), C(t) acceptance 130-1000): 0.0% | Percent of Subjects: Cavg in range & C(t) too low ([2]; C(1), C(t) acceptance 130-1000): 2.4% | Percent of Subjects: Cavg too high & C(t) too high ([2]; C(1), C(t) acceptance 130-1000): 2.4% | Percent of Subjects: Cavg too low & C(t) in range ([2]; C(1), C(t) acceptance 130-1000): 2.4% | Percent of Subjects: Cavg too low & C(t) too low ([2]; C(1), C(t) acceptance 130-1000): 9.8% | Percent of Subjects: C(t) in range [2, 3]: 90.2% | Percent of Subjects: C(t) too high [2, 3]: 0.0% | Percent of Subjects: C(t) too low [2, 3]: 9.8% | Percent of Subjects: Cavg in range & C(t) in range [2, 3]: 80.5% | Percent of Subjects: Cavg in range & C(t) too high [2, 3]: 0.0% | Percent of Subjects: Cavg in range & C(t) too low [2, 3]: 0.0% | Percent of Subjects: Cavg too high & C(t) in range [2, 3]: 7.3% | Percent of Subjects: Cavg too high & C(t) too high [2, 3]: 0.0% | Percent of Subjects: Cavg too low & C(t) in range [2, 3]: 2.4% | Percent of Subjects: Cavg too low & C(t) too low [2, 3]: 9.8% | Percent of Subjects: C(t) in range ([2]; C(2), C(t) acceptance 150-1200): 90.2% | Percent of Subjects: C(t) too high ([2]; C(2), C(t) acceptance 150-1200): 0.0% | Percent of Subjects: C(t) too low ([2]; C(2), C(t) acceptance 150-1200): 9.8% | Percent of Subjects: Cavg in range & C(t) in range ([2]; C(2), C(t) acceptance 150-1200): 80.5% | Percent of Subjects: Cavg in range & C(t) too high ([2]; C(2), C(t) acceptance 150-1200): 0.0% | Percent of Subjects: Cavg in range & C(t) too low ([2]; C(2), C(t) acceptance 150-1200): 0.0% | Percent of Subjects: Cavg too high & C(t) in range ([2]; C(2), C(t) acceptance 150-1200): 7.3% | Percent of Subjects: Cavg too high & C(t) too high ([2]; C(2), C(t) acceptance 150-1200): 0.0% | Percent of Subjects: Cavg too low & C(t) in range ([2]; C(2), C(t) acceptance 150-1200): 2.4% | Percent of Subjects: Cavg too low & C(t) too low ([2]; C(2), C(t) acceptance 150-1200): 9.8% | Percent of subjects: Cavg in Range F & C(t) in Range F (total of too high and too low) ([2]; C(3), C(t) acceptance 190-1450, Cavg 300-1000): 7.3% | Percent of Subjects: C(t) in range ([2]; C(3), C(t) acceptance 190-1500): 90.2% | Percent of Subjects: C(t) too high ([2]; C(3), C(t) acceptance 190-1500): 0.0% | Percent of Subjects: C(t) too low ([2]; C(3), C(t) acceptance 190-1500): 9.8% | Percent of Subjects: Cavg in range & C(t) in range ([2]; C(3), C(t) acceptance 190-1500): 78.0% | Percent of Subjects: Cavg in range & C(t) too high ([2]; C(3), C(t) acceptance 190-1500): 0.0% | Percent of Subjects: Cavg in range & C(t) too low ([2]; C(3), C(t) acceptance 190-1500): 2.4% | Percent of Subjects: Cavg too high & C(t) in range ([2]; C(3), C(t) acceptance 190-1500): 7.3% | Percent of Subjects: Cavg too high & C(t) too high ([2]; C(3), C(t) acceptance 190-1500): 0.0% | Percent of Subjects: Cavg too low & C(t) in range ([2]; C(3), C(t) acceptance 190-1500): 4.9% | Percent of Subjects: Cavg too low & C(t) too low ([2]; C(3), C(t) acceptance 190-1500): 7.3% | Percent of Subjects: C(t) in range ([2]; C(4), C(t) acceptance 250-1700): 82.9% | Percent of Subjects: C(t) too high ([2]; C(4), C(t) acceptance 250-1700): 2.4% | Percent of Subjects: C(t) too low ([2]; C(4), C(t) acceptance 250-1700): 14.6% | Percent of Subjects: Cavg in range & C(t) in range ([2]; C(4), C(t) acceptance 250-1700): 75.6% | Percent of Subjects: Cavg in range & C(t) too high ([2]; C(4), C(t) acceptance 250-1700): 0.0% | Percent of Subjects: Cavg in range & C(t) too low ([2]; C(4), C(t) acceptance 250-1700): 4.9%
